Results taken from patent publication US4496578A, “Antihypertensive sulfur-containing compounds” (Santen Pharmaceutical Co., Ltd., priority 1978, dated 1985).

Legend:
[1] = system: angiotensin I-converting enzyme; experiment: Percent inhibition of pressor response to angiotensin I in unanesthetized rats after oral administration (ACE inhibition in vivo); design: species or system Male Wistar strain rats
Method: As recently it has been clear that the compounds inhibiting angiotensin I-converting enzyme may be the curative potency against both renal hypertension and essential hypertension, the compounds of this invention are evaluated as antihypertensive agents by the following method.
Male Wistar strain rats weighing 200-300 g were used. Under ether anesthesia, polyethylene cannulae are inserted into carotid artery and jugular vein. The cannula to carotid artery is connected to an electric transducer, while the cannula to jugular vein is connected to an apparatus for continuous infusion. After the complete recovery from anesthesia, angiotensin I is infused intravenously in a dose of 300 ng/kg by the apparatus for continuous infusion, and the pressor response is recorded by polygraph (Nihon Koden, RM-150). The compounds of this invention suspended in 0.5% tragacanth solution are addministered orally in a dose of 0.3 ml per 100 g of body weight, and the pressor response to angiotensin I infused intravenously is measured with time.

[2] = system: male ddy-std. strain mice; experiment: Acute toxicity test in mice; type: in vivo; conditions: intraperitoneal, suspended in 0.5% tragacanth
Method: The male ddy-std. strain mice (4 weeks of age, weighing 19-21 g) were placed in a breeding room of constant temperature and humidity (23±1° C., 55±5%) and fed freely pellet diet (CE-2, Clea Japan, Inc.) and water ad. libitum for a week. The mice showing the normal growth were selected for the experiment.
Test compound is suspended in 0.5% tragacanth solution, and administered intraperitoneally in a dose of 0.5 ml per 20 g B.W.

[3] = 5 min after oral dose, mg/kg: 2 1.8, 2A 1.3, 2B 1.8, 22 1.5, 22A 1.0, 22B 1.4, 32 1.7, 32C 1.3, 64 1.9
[4] = 15 min after oral dose, mg/kg: 2 1.8, 2A 1.3, 2B 1.8, 22 1.5, 22A 1.0, 22B 1.4, 32 1.7, 32C 1.3, 64 1.9
[5] = 25 min after oral dose, mg/kg: 2 1.8, 2A 1.3, 2B 1.8, 22 1.5, 22A 1.0, 22B 1.4, 32 1.7, 32C 1.3, 64 1.9
[6] = 35 min after oral dose, mg/kg: 2 1.8, 2A 1.3, 2B 1.8, 22 1.5, 22A 1.0, 22B 1.4, 32 1.7, 32C 1.3, 64 1.9
[7] = 45 min after oral dose, mg/kg: 2 1.8, 2A 1.3, 2B 1.8, 22 1.5, 22A 1.0, 22B 1.4, 32 1.7, 32C 1.3, 64 1.9
[8] = 55 min after oral dose, mg/kg: 2 1.8, 2A 1.3, 2B 1.8, 22 1.5, 22A 1.0, 22B 1.4, 32 1.7, 32C 1.3, 64 1.9
[9] = 65 min after oral dose, mg/kg: 2 1.8, 2A 1.3, 2B 1.8, 22 1.5, 22A 1.0, 22B 1.4, 32 1.7, 32C 1.3, 64 1.9
[10] = 75 min after oral dose, mg/kg: 2 1.8, 2A 1.3, 2B 1.8, 22 1.5, 22A 1.0, 22B 1.4, 32 1.7, 32C 1.3, 64 1.9
[11] = 85 min after oral dose, mg/kg: 2 1.8, 2A 1.3, 2B 1.8, 22 1.5, 22A 1.0, 22B 1.4, 32 1.7, 32C 1.3, 64 1.9
[12] = 95 min after oral dose, mg/kg: 2 1.8, 2A 1.3, 2B 1.8, 22 1.5, 22A 1.0, 22B 1.4, 32 1.7, 32C 1.3, 64 1.9
[13] = 105 min after oral dose, mg/kg: 2 1.8, 2A 1.3, 2B 1.8, 22 1.5, 22A 1.0, 22B 1.4, 32 1.7, 32C 1.3, 64 1.9
[14] = 115 min after oral dose, mg/kg: 2 1.8, 2A 1.3, 2B 1.8, 22 1.5, 22A 1.0, 22B 1.4, 32 no value, 32C 1.3, 64 1.9

| SMILES | Inhibition (%) of pressor response to angiotensin I [1, 3] | Inhibition (%) of pressor response to angiotensin I [1, 4] | Inhibition (%) of pressor response to angiotensin I [1, 5] | Inhibition (%) of pressor response to angiotensin I [1, 6] | Inhibition (%) of pressor response to angiotensin I [1, 7] | Inhibition (%) of pressor response to angiotensin I [1, 8] | Inhibition (%) of pressor response to angiotensin I [1, 9] | Inhibition (%) of pressor response to angiotensin I [1, 10] | Inhibition (%) of pressor response to angiotensin I [1, 11] | Inhibition (%) of pressor response to angiotensin I [1, 12] | Inhibition (%) of pressor response to angiotensin I [1, 13] | acute toxicity, LD [2] | Inhibition (%) of pressor response to angiotensin I [1, 14] |
| --- | --- | --- | --- | --- | --- | --- | --- | --- | --- | --- | --- | --- | --- |
| CC(=O)Oc1ccccc1C1SC[C@@H](C(=O)O)N1C(=O)CCSC(C)=O (stereo partly drawn) [Compound 32, (4R)-2-(2-Acetoxyphenyl)-3-(S-acetyl-3-mercaptopropanoyl)-4-thiazolidinecarboxylic acid] | 40.2% | 55.3% | 70.2% | 70.2% | 61.1% | 54.2% | 55.3% | 57.2% | 48.2% | 43.4% | 27.3% | > 500 mg/kg | – |
| C[C@H](CSC(=O)c1ccccc1)C(=O)N1CSC[C@H]1C(=O)OCOC(=O)C(C)(C)C [Compound 64, (2,2-Dimethyl-1-oxopropoxy)methyl (4R)-3-[(2S)-S-benzoyl-3-mercapto-2-methylpropanoyl]-4-thiazolidinecarboxylate] | 30.0% | 59.5% | 69.5% | 59.9% | 55.7% | 53.5% | 47.1% | 37.2% | 36.5% | 30.8% | 27.8% | – | 24.5% |
| O=C(O)[C@@H]1CSC(c2ccccc2O)N1C(=O)CCS (stereo partly drawn) [Compound 32C] | 53.3% | 62.9% | 64.7% | 63.7% | 54.0% | 49.3% | 47.7% | 38.8% | 34.0% | 30.0% | 30.0% | – | 31.0% |
| Cc1ccc(C(=O)SC[C@@H](C)C(=O)N2C(C(=O)O)CCC2c2ccccc2O)cc1 (stereo partly drawn) [Compound 2] | 39.3% | 58.1% | 64.0% | 60.0% | 73.0% | 57.2% | 55.0% | 54.5% | 42.0% | 39.5% | 42.0% | – | 37.0% |
| C[C@H](CS)C(=O)N1C(C(=O)O)CCC1c1ccccc1O (stereo partly drawn) [Compound 2A] | 20.0% | 40.0% | 37.5% | 36.5% | 33.7% | 30.0% | 28.2% | 20.0% | 30.0% | 24.8% | 21.0% | – | 20.0% |
| Cc1ccc(C(=O)SC[C@@H](C)C(=O)N2CSC[C@H]2C(=O)O)cc1 [Compound 22] | 45.2% | 60.4% | 51.4% | 59.0% | 55.0% | 50.8% | 55.0% | 53.5% | 49.4% | 46.5% | 39.8% | – | 31.6% |
| C[C@H](CS)C(=O)N1CSC[C@H]1C(=O)O [Compound 22A, (4R)-3-[(2S)-3-mercapto-2-methylpropanoyl]-4-thiazolidinecarboxylic acid] | 34.0% | 51.5% | 49.7% | 45.0% | 37.5% | 30.2% | 30.2% | 30.2% | 28.0% | 19.8% | 10.2% | – | 8.0% |
| C[C@H](CSC(=O)c1ccccc1)C(=O)N1CSC[C@H]1C(=O)O [Compound 22B, (4R)-3-[(2S)-S-benzoyl-3-mercapto-2-methylpropanoyl]-4-thiazoldinecarboxylic acid] | 45.4% | 60.7% | 60.6% | 45.4% | 45.4% | 45.4% | 42.4% | 36.4% | 30.3% | 21.2% | 21.2% | – | 21.2% |
| C[C@H](CSC(=O)c1ccccc1)C(=O)N1C(C(=O)O)CCC1c1ccccc1O (stereo partly drawn) [Compound 2B] | 7.9% | 36.8% | 36.8% | 36.8% | 45.7% | 31.6% | 31.6% | 31.6% | 21.1% | 21.1% | 15.8% | – | 15.8% |
